This note sets out measurements from paper PMC4275348 (Molecular microbiology, 2014).

Where a chain is given by its changes, count along the chain named.

In assay [1] the target is T1, LuxN (Vibrio campbellii, UniProt A7MRY4). The format is cell-based, Vibrio harveyi. As to conditions: for effect on light production (antagonist activity) / reduction in light production: 1 μM AHL with 20 nM AI-1, V. harveyi TL25; for mechanism of antagonism: IC50 values measured at various concentrations of AI-1.
The target of assay [2] is T1, LuxN. The conditions noted are these: 1 μM AHL; V. harveyi TL25.
In assay [3] the target is luxN^L166A/H210N (Vibrio campbellii, UniProt A7MRY4, H210N/L166A). As to conditions: AHLs added at 1 μM.
Assay [4] has as its target LuxN^L166A (Vibrio campbellii, UniProt A7MRY4, L166A).
For assay [5], the target named is T2, LuxN^H210N (Vibrio campbellii, UniProt A7MRY4, H210N).
T2 sequence (A7MRY4 1-849 H210N): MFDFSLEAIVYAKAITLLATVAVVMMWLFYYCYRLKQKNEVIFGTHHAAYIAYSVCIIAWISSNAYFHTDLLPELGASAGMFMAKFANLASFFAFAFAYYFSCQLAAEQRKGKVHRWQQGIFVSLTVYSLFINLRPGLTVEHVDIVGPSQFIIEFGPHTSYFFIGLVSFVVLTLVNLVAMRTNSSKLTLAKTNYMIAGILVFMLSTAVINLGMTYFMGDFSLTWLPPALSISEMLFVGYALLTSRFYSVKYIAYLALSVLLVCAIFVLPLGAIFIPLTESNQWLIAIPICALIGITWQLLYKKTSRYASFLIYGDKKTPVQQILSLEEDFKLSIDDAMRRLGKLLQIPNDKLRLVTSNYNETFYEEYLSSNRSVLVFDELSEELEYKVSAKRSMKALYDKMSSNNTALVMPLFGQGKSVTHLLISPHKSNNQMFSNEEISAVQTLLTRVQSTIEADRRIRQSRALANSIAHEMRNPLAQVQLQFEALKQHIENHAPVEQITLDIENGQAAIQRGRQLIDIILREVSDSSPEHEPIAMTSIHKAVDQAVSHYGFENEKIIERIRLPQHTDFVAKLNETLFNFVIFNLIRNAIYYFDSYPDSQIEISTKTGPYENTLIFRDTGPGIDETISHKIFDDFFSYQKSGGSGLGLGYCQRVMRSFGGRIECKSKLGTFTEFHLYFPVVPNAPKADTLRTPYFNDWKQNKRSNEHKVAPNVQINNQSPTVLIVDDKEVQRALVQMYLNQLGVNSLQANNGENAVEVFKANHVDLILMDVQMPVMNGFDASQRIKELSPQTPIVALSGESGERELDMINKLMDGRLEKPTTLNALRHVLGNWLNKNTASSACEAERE
The assay can be described thus: Bioluminescence of V. harveyi XK006 carrying luxN H210N. As to conditions: AHLs supplied at 10 μM. The class given is cell-based, Vibrio harveyi.

In assay [6] the target is T3, LuxN^G147D/Y194H (Vibrio campbellii, UniProt A7MRY4, G147D/Y194H).
T3 sequence (A7MRY4 1-849 G147D/Y194H): T2 sequence (A7MRY4 1-849 H210N) with G147D, Y194H, N210H
The assay can be described thus: Bioluminescence of V. harveyi XK006 carrying luxN G147D/Y194H. The format is cell-based, Vibrio harveyi.

The target of assay [7] is T4, luxN^S184I/S230P (Vibrio campbellii, UniProt A7MRY4, S184I/S230P).
T4 sequence (A7MRY4 1-849 S184I/S230P): T2 sequence (A7MRY4 1-849 H210N) with S184I, N210H, S230P
The assay can be described thus: Bioluminescence of V. harveyi XK006 carrying luxN S184I/S230P. The format is cell-based, Vibrio harveyi.

For assay [8], the target named is T5, luxN^T159I/Y193K (Vibrio campbellii, UniProt A7MRY4, N193K/T159I).
T5 sequence (A7MRY4 1-849 T159I/N193K): T2 sequence (A7MRY4 1-849 H210N) with T159I, N193K, N210H
The assay can be described thus: Bioluminescence of V. harveyi XK006 carrying luxN T159I/Y193K. The format is cell-based, Vibrio harveyi.

For `CC(=O)CC(=O)NC1CCOC1=O` (stereo not drawn) [3O-C4 HSL], in assay [1], the “effect on light production (antagonist activity)” value is “did not decrease light production”. Also, the “induction of light production” value in assay [2] is listed as “did not induce light production”.

`CCCC(=O)CC(=O)NC1CCOC1=O` (stereo not drawn) [3O-C6 HSL]: the light production result in assay [3] is reported as “detected”.

With `CCCCCC(=O)CC(=O)NC1CCOC1=O` (stereo not drawn) [3O-C8 HSL], the “detection (light production)” value in assay [4] is “only modest detection”. Moreover, the light production entry in assay [3] is on record as “produced maximal light”.

As to `CCCC(O)CC(=O)N[C@H]1CCOC1=O` (stereo partly drawn) [3OH-C6 HSL], in assay [1], the “effect on light production (antagonist activity)” value is on record as “little effect on light production”.

Turning to `CCCCCCCC(O)CC(=O)N[C@H]1CCOC1=O` (stereo partly drawn) [3OH-C10 HSL], in assay [1], the “reduction in light production” value stood at 30 fold.

Turning to `CCCCCCCCCC(O)CC(=O)N[C@H]1CCOC1=O` (stereo partly drawn) [3OH-C12 HSL], the “reduction in light production” value in assay [1] was 100 fold.

On to `CCCCCC(=O)N[C@H]1CCOC1=O` [C6 HSL], for which the “induction of light production” value in assay [5] was “activated modest light production”. For the same compound, the light production result in assay [3] is listed as “detected”.

With `CCCCCCCCCC(=O)N[C@H]1CCOC1=O` [C10 HSL], the mechanism of antagonism entry in assay [1] is “behaved similarly to 3O-C12 HSL”.

With `CCCCCCCCCCCC(=O)N[C@H]1CCOC1=O` [C12 HSL], the “response (dose-dependent light production)” value in assay [6], in assay [7] and in assay [8] was “none responded” in each case.

Turning to phenoxy-thiolactone [PTL], in assay [1], the mechanism of antagonism entry is given as “behaved similarly to 3O-C12 HSL”.
